# Columns and labels:
# [1] = tested on: Mycobacterium tuberculosis; assay: Ratio of rifalazil IC50 to compound IC50 for Mycobacterium tuberculosis RNA polymerase S450L mutant in the presence of sigmaA factor
# [2] = Inhibition of Mycobacterium tuberculosis RNA polymerase H445Y mutant by rolling circle transcription assay in the presence of sigmaA factor
# [3] = tested on: Mycobacterium tuberculosis; assay: Ratio of rifalazil IC50 to compound IC50 for Mycobacterium tuberculosis RNA polymerase D435V mutant in the presence of sigmaA factor
# [4] = Inhibition of Mycobacterium tuberculosis RNA polymerase S450L mutant by rolling circle transcription assay in the presence of sigmaA factor
# [5] = Inhibition of Mycobacterium tuberculosis RNA polymerase D435V mutant by rolling circle transcription assay in the presence of sigmaA factor
# [6] = Inhibition of Mycobacterium tuberculosis RNA polymerase D435V mutant by rolling circle transcription assay in the absence of sigmaA factor
# [7] = Inhibition of Mycobacterium tuberculosis RNA polymerase H445Y mutant by rolling circle transcription assay in the absence of sigmaA factor
# [8] = Inhibition of Mycobacterium tuberculosis RNA polymerase S450L mutant by rolling circle transcription assay in the absence of sigmaA factor
SMILES,Ratio IC50 [1],IC50 [2] [µM],Ratio IC50 [3],IC50 [4] [µM],IC50 [5] [µM],IC50 [6] [µM],IC50 [7] [µM],IC50 [8] [µM]
CO[C@H]1/C=C/O[C@@]2(C)Oc3c(C)c(O)c4c(=O)c(c5oc6cccc(OCCCCN7CCN(CCn8ccnc8)CC7)c6nc-5c4c3C2=O)NC(=O)/C(C)=C\C=C\[C@H](C)[C@H](O)[C@@H](C)[C@@H](O)[C@@H](C)[C@H](OC(C)=O)[C@@H]1C,7,437,26,18,9,–,–,–
CO[C@H]1/C=C/O[C@@]2(C)Oc3c(C)c(O)c4c(O)c(c(/C=N/N5CCN(C)CC5)c(O)c4c3C2=O)NC(=O)/C(C)=C\C=C\[C@H](C)[C@H](O)[C@@H](C)[C@@H](O)[C@@H](C)[C@H](OC(C)=O)[C@@H]1C [RIFAMPIN],–,–,–,–,–,313,830,126
CO[C@H]1/C=C/O[C@@]2(C)Oc3c(C)c(O)c4c(=O)c(c5oc6cc(N7CCN(CC(C)C)CC7)cc(O)c6nc-5c4c3C2=O)NC(=O)/C(C)=C\C=C\[C@H](C)[C@H](O)[C@@H](C)[C@@H](O)[C@@H](C)[C@H](OC(C)=O)[C@@H]1C [RIFALAZIL],–,172,–,117,541,–,–,–
CO[C@H]1/C=C/O[C@@]2(C)Oc3c(C)c(O)c4c(=O)c(c5oc6cccc(OCCCCN7CCN(C(=O)Cn8ccnc8)CC7)c6nc-5c4c3C2=O)NC(=O)/C(C)=C\C=C\[C@H](C)[C@H](O)[C@@H](C)[C@@H](O)[C@@H](C)[C@H](OC(C)=O)[C@@H]1C,–,574,26,122,13,–,–,–
CCN(CC)CCOc1cccc2oc3c4c(=O)c5c(O)c(C)c6c(c5c-3nc12)C(=O)[C@@](C)(O/C=C/[C@H](OC)[C@@H](C)[C@@H](OC(C)=O)[C@H](C)[C@H](O)[C@H](C)[C@@H](O)[C@@H](C)/C=C/C=C(/C)C(=O)N4)O6,7,171,26,16,20,–,–,–

# Source: ChEMBL document CHEMBL2046330, “Structure-based design of novel benzoxazinorifamycins with potent binding affinity to wild-type and rifampin-resistant mutant Mycobacterium tuberculosis RNA polymerases” (J Med Chem, 2012)
